Assay results from patent US12486239B2, “Benzotriazole compound, light absorber, and resin composition” (MITSUI CHEMICALS, INC., priority 2019, dated 2025).

Columns and labels:
Format in all cases: physicochemical
[1] = Maximum absorption wavelength and gram absorption coefficient, toluene solution 0.01 g/L (first embodiment); conditions: optical path length 10 mm
Procedure: The maximum absorption wavelength of the benzotriazole compound of the first embodiment is measured using a spectrophotometer (for example, Shimadzu Spectrophotometer UV-1600 manufactured by Shimadzu Corporation) at an optical path length of 10 mm using a toluene solution having a concentration of 0.01 g/L.
In Examples according to the first embodiment, the maximum absorption wavelength and the gram absorption coefficient of the benzotriazole compound were measured using a Shimadzu Spectrophotometer UV-1600 manufactured by Shimadzu Corporation at an optical path length of 10 mm using a toluene solution having a concentration of 0.01 g/L.

[2] = Solubility to various organic solvents; conditions: room temperature; for Solubility to various organic solvents: PGMEA / Solubility to various organic solvents: Ethyl acetate / Solubility to various organic solvents: MEK / Solubility to various organic solvents: MMA / Solubility to various organic solvents: Toluene: Table 1
Procedure: As Comparative Example 1, the solubility of TINUVIN326 (manufactured by BASF Japan Ltd.) represented by the following Formula (TI) was measured by the following method.
(§1) To 0.5 g of the benzotriazole compound, the various organic solvents shown in Table 1 were added such that the total mass was about 10 g, the mixture was irradiated with ultrasonic waves for about 30 minutes, and thereafter stirred at room temperature for 2 hours to prepare a dispersion of about 10% by mass.
The dispersion was filtered through a membrane filter (0.2 μm), and the obtained residue was dried in a dryer at 60° C. for 1 hour, and then the mass of the residue was measured.
The solubility of the benzotriazole compound to the solvent was expressed by the following formula. Solubility (% by mass)=(W0−W1)/W0
W0 is the mass of the benzotriazole compound before the treatment, and W1 is the mass of the residue after drying (that is, the dissolution residue of the benzotriazole compound). In a case in which no residue remained on the filter, the solubility was determined as 5% by mass or more.
The solubility of the benzotriazole compound obtained in each Example and Comparative Example was measured by the following method.
as §1, with “Table 6” for “Table 1”

[3] = Heat resistance: TG5% decomposition temperature; conditions: nitrogen atmosphere, heating rate 10° C./min; for T-5% by mass: Table 2; for Decomposition temperature (Tg-5% by mass): Table 6
Procedure: In each Example and Comparative Example, the decomposition temperature was measured by the following method.
Using a thermal analyzer Rigaku ThermoPlus Evo TG8120, the TG5% decomposition temperature (T-5% by mass) was measured under a nitrogen atmosphere at a heating rate of 10° C./min and a temperature range of from room temperature to 500° C.
The higher the T-5% by mass, the higher the heat resistance.
The decomposition temperature of the benzotriazole compound obtained in each Example and Comparative Example was measured by the following method.

| SMILES | gram absorption coefficient [1] | maximum absorption [1] [nm] | Solubility to various organic solvents: PGMEA ([2]; PGMEA) | Solubility to various organic solvents: Ethyl acetate ([2]; ethyl acetate) | Solubility to various organic solvents: MEK ([2]; methyl ethyl ketone) | Solubility to various organic solvents: MMA ([2]; methyl methacrylate) | Solubility to various organic solvents: Toluene ([2]; toluene) | T-5% by mass [3] [°C] | Solubility: PGMEA ([2]; Table 6, PGMEA) [% by mass] | Solubility: EA ([2]; Table 6, ethyl acetate) [% by mass] | Solubility: MEK ([2]; Table 6, methyl ethyl ketone) [% by mass] | Solubility: MMA ([2]; Table 6, methyl methacrylate) [% by mass] | Solubility: Toluene ([2]; Table 6, toluene) | Decomposition temperature (Tg-5% by mass) [3] [°C] | Decomposition temperature (Tg-5% by mass) ([3]; listed as Comparative Example 1C) |
| --- | --- | --- | --- | --- | --- | --- | --- | --- | --- | --- | --- | --- | --- | --- | --- |
| Oc1cc(NC2CCCCC2)ccc1-n1nc2ccc(Cl)cc2n1 [Compound (4)] | 9.76×10^4 g/mL·cm | 389.5 |  |  |  |  |  |  |  |  |  |  |  |  |  |
| CCCCC(CC)C(=O)Nc1ccc(-n2nc3ccc(Sc4ccc(C(C)(C)C)cc4)cc3n2)c(O)c1 (stereo not drawn) [Compound (58)] | 6.61×10^4 g/mL·cm | 371.5 | 2 % by mass | 3 % by mass | 5 or more % by mass | 5 or more % by mass | 2 % by mass | 374.7 |  |  |  |  |  |  |  |
| CCC(C)(C)C(=O)Nc1ccc(-n2nc3ccc(Sc4ccc(C(C)(C)C)cc4)cc3n2)c(O)c1 [Compound (101)] | 7.02×10^4 g/mL·cm | 371.5 | 1 % by mass | 1.5 % by mass | 3 % by mass | 3 % by mass | 1 % by mass | 366.1 |  |  |  |  |  |  |  |
| O=C(Nc1ccc(-n2nc3ccc(Cl)cc3n2)c(O)c1)C1CCCCC1 [Compound (103)] | 8.48×10^4 g/mL·cm | 359.0 |  |  |  |  |  | 335.7 |  |  |  |  |  |  |  |
| CC(C)(C)c1ccc(CSc2ccc3nn(-c4ccc(NC(=O)C5CCCCC5)cc4O)nc3c2)cc1 [Compound (104)] | 6.90×10^4 g/mL·cm | 371.0 |  |  |  |  |  | 313.1 |  |  |  |  |  |  |  |
| O=C1CCc2cc(-n3nc4ccc(Cl)cc4n3)c(O)cc2N1 [Compound (105)] | 7.28×10^4 g/mL·cm | 365.5 |  |  |  |  |  |  |  |  |  |  |  |  |  |
| CCNc1cc(O)c(-n2nc3ccc(OC)cc3n2)cc1C [Compound (111)] | 1.04×10^5 g/mL·cm | 378.5 | 3 % by mass | 5 % by mass | 10 % by mass | 4 % by mass | 1 % by mass | 252.6 |  |  |  |  |  |  |  |
| CCCCC(CC)C(=O)Nc1ccc(-n2nc3ccc(Sc4ccc(C)cc4)cc3n2)c(O)c1 (stereo not drawn) [Compound (113)] | 6.98×10^4 g/mL·cm | 371.5 | 1 or more % by mass | 1 or more % by mass | 2.5 or more % by mass | 2 or more % by mass | 0.5 or more % by mass | 365.5 |  |  |  |  |  |  |  |
| Cc1cc(-n2nc3ccc(Cl)cc3n2)c(O)c(C(C)(C)C)c1 [TINUVIN326, 2-(5-chloro-2-benzotriazol)-6-tert-butyl-p-cresol, reference compound] |  |  | 1 % by mass | 3 % by mass | 3 % by mass | 5 % by mass | 5 or more % by mass | 219.2 | 1 | 3 | 3 | 5 | 5≤ % by mass | 219.2 | lower than that of Examples |

Other lines, results leading:

| gram absorption coefficient [1] | maximum absorption [1] [nm] | Solubility to various organic solvents: PGMEA ([2]; PGMEA) | Solubility to various organic solvents: Ethyl acetate ([2]; ethyl acetate) | Solubility to various organic solvents: MEK ([2]; methyl ethyl ketone) | Solubility to various organic solvents: MMA ([2]; methyl methacrylate) | Solubility to various organic solvents: Toluene ([2]; toluene) | T-5% by mass [3] [°C] | Solubility: PGMEA ([2]; Table 6, PGMEA) [% by mass] | Solubility: EA ([2]; Table 6, ethyl acetate) [% by mass] | Solubility: MEK ([2]; Table 6, methyl ethyl ketone) [% by mass] | Solubility: MMA ([2]; Table 6, methyl methacrylate) [% by mass] | Solubility: Toluene ([2]; Table 6, toluene) | Decomposition temperature (Tg-5% by mass) [3] [°C] | Decomposition temperature (Tg-5% by mass) ([3]; listed as Comparative Example 1C) | SMILES |
| --- | --- | --- | --- | --- | --- | --- | --- | --- | --- | --- | --- | --- | --- | --- | --- |
| 9.77×10^4 g/mL·cm | 387 |  |  |  |  |  |  |  |  |  |  |  |  |  | CCCCCNc1ccc(-n2nc3ccc(Cl)cc3n2)c(O)c1 [Compound (3)] |
| 6.1×10^4 g/mL·cm | 355 |  |  |  |  |  |  |  |  |  |  |  |  |  | CCCCCCC(=O)N(c1ccccc1)c1ccc(-n2nc3ccc(Cl)cc3n2)c(O)c1 [Compound (22)] |
| 7.9×10^4 g/mL·cm | 359.0 | 1 % by mass | 1 % by mass | 1 % by mass | 1 % by mass | 0.5 % by mass | 323.5 |  |  |  |  |  |  |  | CCCCCCC(=O)Nc1ccc(-n2nc3ccc(Cl)cc3n2)c(O)c1 [Compound (53)] |
| 7.10×10^4 g/mL·cm | 371.0 | 0.3 % by mass | 0.3 % by mass | 1 % by mass | 0.5 % by mass | 0.3 % by mass | 359.7 |  |  |  |  |  |  |  | CCCCCCCCSc1ccc2nn(-c3ccc(NC(=O)CCCCCC)cc3O)nc2c1 [Compound (54)] |
| 6.9×10^4 g/mL·cm | 371.0 | 5 or more % by mass | 5 % by mass | 5 % by mass | 5 or more % by mass | 2 % by mass | 359.4 |  |  |  |  |  |  |  | CCCCCCC(=O)Nc1ccc(-n2nc3ccc(Sc4ccc(C(C)(C)C)cc4)cc3n2)c(O)c1 [Compound (55)] |
| 7.48×10^4 g/mL·cm | 359.0 | 0.8 % by mass | 0.8 % by mass | 2 % by mass | 1.2 % by mass | 0.2 % by mass | 312.7 |  |  |  |  |  |  |  | CCCCC(CC)C(=O)Nc1ccc(-n2nc3ccc(Cl)cc3n2)c(O)c1 (stereo not drawn) [Compound (56)] |
| 8.40×10^4 g/mL·cm | 359.0 | 5 or more % by mass | 5 or more % by mass | 5 or more % by mass | 5 or more % by mass | 2 % by mass | 309.1 |  |  |  |  |  |  |  | CCC(C)(C)C(=O)Nc1ccc(-n2nc3ccc(Cl)cc3n2)c(O)c1 [Compound (59)] |
| 9.37×10^4 g/mL·cm | 360.0 |  |  |  |  |  |  |  |  |  |  |  |  |  | O=C(Nc1ccc(-n2nc3ccc(Cl)cc3n2)c(O)c1)c1ccccc1 [Compound (61)] |
| 1.07×10^5 g/mL·cm | 372.5 |  |  |  |  |  | 230.1 |  |  |  |  |  |  |  | CCN(CC)C(=O)Nc1ccc(-n2nc3ccc(Cl)cc3n2)c(O)c1 [Compound (81)] |
| 5.19×10^4 g/mL·cm | 347.0 |  |  |  |  |  |  |  |  |  |  |  |  |  | CC(=O)Nc1ccc(-n2nc3ccc(Cl)cc3n2)c(O)c1 [Compound (102)] |
| 7.47×10^4 g/mL·cm | 370.0 | 2 or more % by mass | 3 or more % by mass | 10 or more % by mass | 4 or more % by mass | 1 or more % by mass | 368.0 |  |  |  |  |  |  |  | CCCCC(CC)C(=O)Nc1ccc(-n2nc3ccc(Sc4ccccc4)cc3n2)c(O)c1 (stereo not drawn) [Compound (112)] |
